tested on: MM.1S cells; experiment: In vitro cytotoxic potency in MM.1S cell viability assay (CellTiter-Glo); format: cell-based, human; conditions: 72 h, CellTiter-Glo 2.0; read-out: MM.1S IC50
Protocol: Methods: MM.1S Cells were cultivated in RPMI medium 1640 (IX) supplemented with 10 μg/μL penicillin/streptomycin, 10% heat inactivated FBS, 0.1 mM Sodium Pyruvate, 1×MEM NEAA (ThermoFisher) and 1 mM HEPES. Cells were grown to reach log phase before being exposed to the test compounds.
(§1) Test compounds (Example compounds 1 to 36, 38 to 41 and 45 to 48) and comparative compounds (bendamustine, busulfan, melphalan, chlorambucil and 4-hydroperoxy cyclophosphamide) were dissolved in 100% DMSO and added to a 384 assay plate. Additional DMSO was added to maintain the same final DMSO concentration (0.2%) in all wells. 25 μL cell suspension with a concentration of 100000 cells/mL was added to each well. The cells were cultured in a CO2 incubator at 37° C. for 72 h. Plates were equilibrated to room temperature for 30 minutes before adding 20 μL CellTiter-Glo® 2.0 (Promega) reagent to all wells. The plate was then allowed to stabilize for 20 minutes before recording the luminescence (emission filter 700 nm) in an Envision plate reader.
All cells were cultivated in RPMI medium 1640 (IX). All media was supplemented with 10 μg/μl penicillin/streptomycin, 10% heat inactivated FBS, 0.1 mM Sodium Pyruvate, 1×MEM NEAA (ThermoFisher) and 1 mM HEPES. The DERL-2 cells had higher FBS (20%) and 40 ng/mL IL-2 was added. hPBMCs were thawed and allowed to acclimatise overnight and then stimulated with 10 μg/mL PHA-M and 40 ng/mL IL-2 for 4 hours before being exposed to test compounds. All cells, except for hPBMCs, were grown to reach log phase before being exposed to the test compounds.
as §1, with “compounds” for “compounds (Example compounds 1 to 36, 38 to 41 and 45 to 48) and comparative compounds (bendamustine, busulfan, melphalan, chlorambucil and 4-hydroperoxy cyclophosphamide)”, “(Em” for “(emission”

**Q.** Which IC50 does the source give for `O=P1(N(CCCl)CCCl)NC(OO)CCO1` (centres unmarked) [4-hydroperoxy cyclophosphamide, reference compound] here?
**A.** Its IC50 is 7300 nM.

**Q.** With `COCC(C)OC(=O)[C@H](CC(C)C)NC(=O)[C@@H](N)CCc1nc2cc(N(CCCl)CCCl)ccc2n1C` (stereo partly drawn) [Example 29, (2-Methoxy-1-methyl-ethyl) (2S)-2-[[(2S)-2-amino-4-[5-[bis(2-chloroethyl)amino]-1-methyl-benzimidazol-2-yl]butanoyl]amino]-4-methyl-pentanoate] as the compound, how does the IC50 read?
**A.** The IC50 was 1.4 nM.

same assay, conditions: Homo sapiens, MM1.S, 72 h, read-out: MM.1S IC50

**Q.** `O=C(O)CCCc1ccc(N(CCCl)CCCl)cc1` [Chlorambucil, chlorambucil, reference compound] was tested. Which IC50 did it give?
**A.** The IC50 was 6870 nM.

**Q.** How did the IC50 turn out when `CCOC(=O)[C@@H](NC(=O)[C@@H](N)CCc1nc2cc(N(CCCl)CCCl)ccc2n1C)C(C)C` [Example 3, Ethyl (2S)-2-[[(2S)-2-amino-4-[5-[bis(2-chloroethyl)amino]-1-methyl-benzimidazol-2-yl]butanoyl]amino]-3-methyl-butanoate] was run?
**A.** The IC50 was 6.8 nM.

**Q.** Which IC50 does the source give for `CCOC(=O)[C@H](CC(C)C)NC(=O)[C@@H](N)Cc1nc2cc(N(CCCl)CCCl)ccc2n1C` [Example 4, Ethyl (2S)-2-[[(2S)-2-amino-3-[5-[bis(2-chloroethyl)amino]-1-methyl-benzimidazol-2-yl]propanoyl]amino]-4-methyl-pentanoate] here?
**A.** Its IC50 is 6.6 nM.

**Q.** For `CCOC(=O)[C@H](Cc1ccc(F)cc1)NC(=O)[C@@H](N)Cc1nc2cc(N(CCCl)CCCl)ccc2n1C` [Example 5, Ethyl (2S)-2-[[(2S)-2-amino-3-[5-[bis(2-chloroethyl)amino]-1-methyl-benzimidazol-2-yl]propanoyl]amino]-3-(4-fluorophenyl)propanoate], which IC50 is on record?
**A.** The IC50 was 22.6 nM.

**Q.** Which IC50 does the source give for `CCOC(=O)[C@@H](NC(=O)[C@@H](N)Cc1nc2cc(N(CCCl)CCCl)ccc2n1C)C(C)C` [Example 6, Ethyl (2S)-2-[[(2S)-2-amino-3-[5-[bis(2-chloroethyl)amino]-1-methyl-benzimidazol-2-yl]propanoyl]amino]-3-methyl-butanoate] here?
**A.** Its IC50 is 98.7 nM.

**Q.** How did the IC50 turn out when `CCOC(=O)[C@H](CCc1nc2cc(N(CCCl)CCCl)ccc2n1C)NC(=O)[C@@H](N)CC(C)C` [Example 7, Ethyl (2S)-2-[[(2S)-2-amino-4-methyl-pentanoyl]amino]-4-[5-[bis(2-chloroethyl)amino]-1-methyl-benzimidazol-2-yl]butanoate] was run?
**A.** Its IC50 is 22.9 nM.

**Q.** With `CCOC(=O)[C@H](CCc1nc2cc(N(CCCl)CCCl)ccc2n1C)NC(=O)[C@@H](N)Cc1ccc(F)cc1` [Example 8, Ethyl (2S)-2-[[(2S)-2-amino-3-(4-fluorophenyl)propanoyl]amino]-4-[5-[bis(2-chloroethyl)amino]-1-methyl-benzimidazol-2-yl]butanoate] as the compound, how does the IC50 read?
**A.** The IC50 was 14.4 nM.

**Q.** With `CCOC(=O)[C@H](CCc1nc2cc(N(CCCl)CCCl)ccc2n1C)NC(=O)[C@@H](N)C(C)C` [Example 9, Ethyl (2S)-2-[[(2S)-2-amino-3-methyl-butanoyl]amino]-4-[5-[bis(2-chloroethyl)amino]-1-methyl-benzimidazol-2-yl]butanoate] as the compound, how does the IC50 read?
**A.** The IC50 was 22.5 nM.

**Q.** `CCOC(=O)[C@H](Cc1nc2cc(N(CCCl)CCCl)ccc2n1C)NC(=O)[C@@H](N)Cc1ccc(F)cc1` [Example 11, Ethyl (2S)-2-[[(2S)-2-amino-3-(4-fluorophenyl)propanoyl]amino]-3-[5-[bis(2-chloroethyl)amino]-1-methyl-benzimidazol-2-yl]propanoate] was tested. Which IC50 did it give?
**A.** The IC50 was 14.7 nM.

**Q.** `CCOC(=O)[C@H](Cc1nc2cc(N(CCCl)CCCl)ccc2n1C)NC(=O)[C@@H](N)C(C)C` [Example 12, Ethyl (2S)-2-[[(2S)-2-amino-3-methyl-butanoyl]amino]-3-[5-[bis(2-chloroethyl)amino]-1-methyl-benzimidazol-2-yl]propanoate] was tested. Which IC50 did it give?
**A.** Its IC50 is 12.5 nM.

**Q.** How did the IC50 turn out when `COC(=O)[C@H](CC(C)C)NC(=O)[C@@H](N)Cc1nc2cc(N(CCCl)CCCl)ccc2n1C` [Example 14, Methyl (2S)-2-[[(2S)-2-amino-3-[5-[bis(2-chloroethyl)amino]-1-methyl-benzimidazol-2-yl]propanoyl]amino]-4-methyl-pentanoate] was run?
**A.** The IC50 was 8.7 nM.

**Q.** How did the IC50 turn out when `CC(C)C[C@H](NC(=O)[C@@H](N)Cc1nc2cc(N(CCCl)CCCl)ccc2n1C)C(=O)OC(C)C` [Example 15, Isopropyl (2S)-2-[[(2S)-2-amino-3-[5-[bis(2-chloroethyl)amino]-1-methyl-benzimidazol-2-yl]propanoyl]amino]-4-methyl-pentanoate] was run?
**A.** The IC50 was 9.1 nM.

**Q.** Which IC50 does the source give for `CCOC(=O)[C@H](CCc1nc2cc(N(CCCl)CCCl)ccc2n1C)NC(=O)[C@H](CC(C)C)NC(=O)[C@@H](N)Cc1ccc(F)cc1` [Example 16, Ethyl (2S)-2-[[(2S)-2-[[(2S)-2-amino-3-(4-fluorophenyl)propanoyl]amino]-4-methyl-pentanoyl]amino]-4-[5-[bis(2-chloroethyl)amino]-1-methyl-benzimidazol-2-yl]butanoate] here?
**A.** Its IC50 is 25 nM.

**Q.** Which IC50 does the source give for `Cn1c(C[C@H](N)C(=O)O)nc2cc(N(CCCl)CCCl)ccc21` [Example 17, (2S)-2-amino-3-[5-[bis(2-chloroethyl)amino]-1-methyl-benzimidazol-2-yl]propanoic acid] here?
**A.** The IC50 was 40000 nM.

**Q.** How did the IC50 turn out when `CC(C)[C@H](NC(=O)[C@@H](N)CCc1nc2cc(N(CCCl)CCCl)ccc2n1C)C(=O)O` [Example 19, (2S)-2-[[(2S)-2-amino-4-[5-[bis(2-chloroethyl)amino]-1-methyl-benzimidazol-2-yl]butanoyl]amino]-3-methyl-butanoic acid] was run?
**A.** The IC50 was 4020 nM.

**Q.** Which IC50 does the source give for `CCOC(=O)[C@H](CCc1nc2cc(N(CCCl)CCCl)ccc2n1C)NC(=O)[C@@H](CC(C)C)NC(=O)[C@@H](N)Cc1ccc(F)cc1` [Example 21, Ethyl (2S)-2-[[(2R)-2-[[(2S)-2-amino-3-(4-fluorophenyl)propanoyl]amino]-4-methyl-pentanoyl]amino]-4-[5-[bis(2-chloroethyl)amino]-1-methyl-benzimidazol-2-yl]butanoate] here?
**A.** Its IC50 is 26.6 nM.

**Q.** With `CCOC(=O)[C@H](Cc1ccc(F)cc1)NC(=O)[C@H](CC(C)C)NC(=O)[C@@H](N)CCc1nc2cc(N(CCCl)CCCl)ccc2n1C` [Example 22, Ethyl (2S)-2-[[(2S)-2-[[(2S)-2-amino-4-[5-[bis(2-chloroethyl)amino]-1-methyl-benzimidazol-2-yl]butanoyl]amino]-4-methyl-pentanoyl]amino]-3-(4-fluorophenyl)propanoate] as the compound, how does the IC50 read?
**A.** The IC50 was 31.3 nM.

**Q.** How did the IC50 turn out when `CCOC(=O)[C@H](CC(C)C)NC(=O)[C@H](CC(C)C)NC(=O)[C@@H](N)CCc1nc2cc(N(CCCl)CCCl)ccc2n1C` [Example 23, Ethyl (2S)-2-[[(2S)-2-[[(2S)-2-amino-4-[5-[bis(2-chloroethyl)amino]-1-methyl-benzimidazol-2-yl]butanoyl]amino]-4-methyl-pentanoyl]amino]-4-methyl-pentanoate] was run?
**A.** The IC50 was 41.8 nM.

**Q.** `CC(C)C[C@H](NC(=O)[C@@H](N)CCc1nc2cc(N(CCCl)CCCl)ccc2n1C)C(=O)OCCN1CCOCC1` [Example 24, 2-Morpholinoethyl (2S)-2-[[(2S)-2-amino-4-[5-[bis(2-chloroethyl)amino]-1-methyl-benzimidazol-2-yl]butanoyl]amino]-4-methyl-pentanoate] was tested. Which IC50 did it give?
**A.** Its IC50 is 156 nM.

**Q.** For `CC(C)C[C@H](NC(=O)[C@@H](N)CCc1nc2cc(N(CCCl)CCCl)ccc2n1C)C(=O)OCCOC(C)C` [Example 25, 2-Isopropoxyethyl (2S)-2-[[(2S)-2-amino-4-[5-[bis(2-chloroethyl)amino]-1-methyl-benzimidazol-2-yl]butanoyl]amino]-4-methyl-pentanoate], which IC50 is on record?
**A.** The IC50 was 18.5 nM.

**Q.** How did the IC50 turn out when `CC(C)C[C@H](NC(=O)[C@@H](N)CCc1nc2cc(N(CCCl)CCCl)ccc2n1C)C(=O)OC(C)C` [Example 26, Isopropyl (2S)-2-[[(2S)-2-amino-4-[5-[bis(2-chloroethyl)amino]-1-methyl-benzimidazol-2-yl]butanoyl]amino]-4-methyl-pentanoate] was run?
**A.** Its IC50 is 6.8 nM.

**Q.** With `COC(=O)[C@H](CC(C)C)NC(=O)[C@@H](N)CCc1nc2cc(N(CCCl)CCCl)ccc2n1C` [Example 27, Methyl (2S)-2-[[(2S)-2-amino-4-[5-[bis(2-chloroethyl)amino]-1-methyl-benzimidazol-2-yl]butanoyl]amino]-4-methyl-pentanoate] as the compound, how does the IC50 read?
**A.** Its IC50 is 8.2 nM.

**Q.** `CC(C)C[C@H](NC(=O)[C@@H](N)CCc1nc2cc(N(CCCl)CCCl)ccc2n1C)C(=O)OCCCN(C)C` [Example 28, 3-(Dimethylamino)propyl (2S)-2-[[(2S)-2-amino-4-[5-[bis(2-chloroethyl)amino]-1-methyl-benzimidazol-2-yl]butanoyl]amino]-4-methyl-pentanoate] was tested. Which IC50 did it give?
**A.** The IC50 was 352 nM.

same assay, conditions: Homo sapiens, MM1.S; 72 h, CellTiter-Glo 2.0; read-out: MM.1S IC50

**Q.** `CS(=O)(=O)OCCCCOS(C)(=O)=O` [Busulfan, busulfan, reference compound] was tested. Which IC50 did it give?
**A.** Its IC50 is 180000 nM.
